These results are taken from US20260242753A1, “NOVEL INHIBITORS OF HISTONE […] NUCLEAR LOCALISATION” (The Council of the Queensland Institute of Medical Research, priority 2022, published 2026).

In this experiment the test system is SETDB1, CSV, ATF7IP, IMPα1 in H1299 cells. Briefly: IFA microscopy of SETDB1, CSV, ATF7IP, IMPα1 in H1299. The experiment is classed as cell-based, human. Details: dose or concentration left out as unconfirmed. As to the method:
FIG. 18. […] Protein targets were localized by ASI digital pathology. […] Protein targets were localized by ASI digital pathology.
IFA microscopy and cell culture methods were performed as described in detail, above.

For Mithramycin A [MTH], the “expression of mesenchymal metastatic marker CSV” value is “induced an increase” and the “nuclear expression of SETDB1” value was “no effect”.
